Measurements published in patent US20250380696A1, “METHOD FOR CONTROLLING UNDESIRED PLANTS AND PROMOTING GROWTH OF USEFUL PLANTS” (ISHIHARA SANGYO KAISHA, LTD., priority 2022, published 2025).

Legend:
Type in all cases: in vivo
[1] = tested on: forage corn (cultivar: SNOW DENT OTOHA); test: (20) Plant growth promotion effect test (corn), Italian ryegrass sown; conditions: 33rd day after the sowing, above-ground part
Description: Upland soil was put in a 1/1,000,000 hectare pot, and seeds of Italian ryegrass (Lolium multiflorum) were sown. When the Italian ryegrass reached 2.7 to 3.0 leaf stage, a water-based suspension containing tiafenacil as the active ingredient, prepared by a conventional method for preparing a water-based suspension, and an emulsifiable concentrate containing dimethenamid-P as the active ingredient (tradename: Fieldstar P emulsifiable concentrate, manufactured by BASF) were diluted with water (in an amount corresponding to 200 liter per hectare) containing 0.5 vol % of an agricultural spreader (tradename: Destiny HC, manufactured by Winfield Solutions, LLC.) and sprayed by a small spray gun (model: W-101-132G, manufactured by ANEST IWATA Corporation). Seeds of forage corn (cultivar: SNOW DENT OTOHA, manufactured by SNOW BRAND SEED Co., Ltd.) were sown in the pot after spraying. On the 33rd day after the sowing, the above-ground part of the forage corn was reaped, and its weight was measured to obtain the raw weight.

[2] = tested on: wheat (cultivar: Norin 61); test: (22) Plant growth promotion effect test (wheat), Italian ryegrass sown; conditions: 21st day after the sowing, above-ground part
Description: Upland soil was put in a 1/1,000,000 hectare pot, and seeds of Italian ryegrass (Lolium multiflorum) were sown. When the Italian ryegrass reached 2.5 to 2.8 leaf stage, a water-based suspension containing tiafenacil as the active ingredient, prepared by a conventional method for preparing a water-based suspension, and a wettable powder containing tri-allate as the active ingredient, prepared by a conventional method for preparing a wettable powder, were diluted with water (in an amount corresponding to 200 liter per hectare) containing 0.5 vol % of an agricultural spreader (tradename: Destiny HC, manufactured by Winfield Solutions, LLC.) and sprayed by a small spray gun (model: W-101-132G, manufactured by ANEST IWATA Corporation). Seeds of wheat (cultivar: Norin 61, manufactured by Asahi Noen Seed Co., Ltd.) were sown in the pot after spraying. On the 21st day after the sowing, the above-ground part of the wheat was reaped, and its weight was measured to obtain the raw weight.

[3] = tested on: Italian ryegrass (Lolium multiflorum); test: (2) Herbicidal effect test, pot, spray at 2.5 to 3.0 leaf stage; conditions: 16th day after spraying
Text: (§1) [formula] • X: growth inhibition rate when treated with α (g/ha) of compound A, • Y: growth inhibition rate when treated with β (g/ha) of compound B, • E: growth inhibition rate expected when treated with α (g/ha) of compound A and β (g/ha) of compound B (expected value).
(§2) Upland soil was put in a 1/1,000,000 hectare pot, and seeds of Italian ryegrass (Lolium multiflorum) were sown. When the Italian ryegrass reached 2.5 to 3.0 leaf stage, a water-based suspension containing tiafenacil as the active ingredient, prepared by a conventional method for preparing a water-based suspension, and an emulsifiable concentrate containing S-metolachlor as the active ingredient (tradename: Dual Gold, manufactured by Syngenta), were diluted with water (in an amount corresponding to 200 liter per hectare) containing 0.5 vol % of an agricultural spreader (tradename: Destiny HC, manufactured by Winfield Solutions, LLC.) and sprayed by a small spray gun (model: W-101-132G, manufactured by ANEST IWATA Corporation). On the 16th day after spraying, the state of growth of the Italian ryegrass was visually observed, and the growth inhibition rate (%) was obtained in accordance with the evaluation standards described in the above (1) herbicidal effect test, and the results are shown in Table 2. Further, the expected value of the growth inhibition rate (%) was calculated in accordance with the Colby's formula described in the above (1) herbicidal effect test, and the results are also shown in Table 2.

[4] = tested on: Italian ryegrass (Lolium multiflorum); test: (4) Herbicidal effect test, pot, spray at 2.5 to 3.0 leaf stage; conditions: 7th day after spraying
Text: as §1
Upland soil was put in a 1/1,000,000 hectare pot, and seeds of Italian ryegrass (Lolium multiflorum) were sown. When the Italian ryegrass reached 2.5 to 3.0 leaf stage, a water-based suspension containing tiafenacil as the active ingredient, prepared by a conventional method for preparing a water-based suspension, and a wettable powder containing metribuzin as the active ingredient (tradename: SENCOR wettable powder, manufactured by Bayer Crop Science) were diluted with water (in an amount corresponding to 200 liter per hectare) containing 0.5 vol % of an agricultural spreader (tradename: Destiny HC, manufactured by Winfield Solutions, LLC.) and sprayed by a small spray gun (model: W-101-132G, manufactured by ANEST IWATA Corporation).
On the 7th day after spraying, the state of growth of the Italian ryegrass was visually observed, and the growth inhibition rate (%) was obtained in accordance with the evaluation standards described in the above (1) herbicidal effect test, and the results are shown in Table 4. Further, the expected value of the growth inhibition rate (%) was calculated in accordance with the Colby's formula described in the above (1) herbicidal effect test, and the results are also shown in Table 4.

[5] = tested on: Italian ryegrass (Lolium multiflorum); test: (6) Herbicidal effect test, pot, spray at 2.5 to 3.0 leaf stage; conditions: 14th day after spraying
Text: as §1
as §2, with “and water dispersible granules” for “and an emulsifiable concentrate”, “containing pyroxasulfone” for “containing S-metolachlor”, “(tradename: Sakura,” for “(tradename: Dual Gold,”, “by Bayer Crop Science)” for “by Syngenta),”, “the 14th” for “the 16th”, “Table 6.” for “Table 2.”

## COC(=O)CCNC(=O)C(C)Sc1cc(-n2c(=O)cc(C(F)(F)F)n(C)c2=O)c(F)cc1Cl (stereo not drawn) [tiafenacil]
[1]; Dose 6.25 g/ha
  Raw weight (g) of forage corn: 12.1 g
[2]; Dose 3 g/ha
  Raw weight (g) of wheat: 2.2 g
[3]; Dose 12.5 g/ha
  Growth inhibition rate (%) Measured value: 30%
[4]; Dose 6.25 g/ha
  Growth inhibition rate (%) Measured value: 30%
[5]; Dose 12.5 g/ha
  Growth inhibition rate (%) Measured value: 63%

## COC[C@H](C)N(C(=O)CCl)c1c(C)csc1C [dimethenamid-P]
[1]; Dose 60 g/ha
  Raw weight (g) of forage corn: 9.8 g
[1]; Dose 375 g/ha
  Raw weight (g) of forage corn: 12.5 g
[1]; Dose 750 g/ha
  Raw weight (g) of forage corn: 8.0 g

## CSc1nnc(C(C)(C)C)c(=O)n1N [metribuzin]
[4]; Lolium multiflorum, Dose 9.38 g/ha, read-out: Growth inhibition rate (%) Measured value
  inhibition at 9.38 g/ha: 0%
[4]; Lolium multiflorum, Dose 275 g/ha, read-out: Growth inhibition rate (%) Measured value
  inhibition at 275 g/ha: 45%
[4]; Lolium multiflorum, Dose 550 g/ha, read-out: Growth inhibition rate (%) Measured value
  inhibition at 550 g/ha: 57%
[4]; Lolium multiflorum, Dose 1100 g/ha, read-out: Growth inhibition rate (%) Measured value
  inhibition at 1100 g/ha: 88%

## CC(C)N(C(=O)SCC(Cl)=C(Cl)Cl)C(C)C [tri-allate]
[2]; Dose 200 g/ha
  Raw weight (g) of wheat: 2.3 g

## Cn1nc(C(F)(F)F)c(CS(=O)(=O)C2=NOC(C)(C)C2)c1OC(F)F [pyroxasulfone]
[5]; Lolium multiflorum, Dose 15 g/ha, read-out: Growth inhibition rate (%) Measured value
  inhibition at 15 g/ha: 0%
[5]; Lolium multiflorum, Dose 30 g/ha, read-out: Growth inhibition rate (%) Measured value
  inhibition at 30 g/ha: 5%
[5]; Lolium multiflorum, Dose 125 g/ha, read-out: Growth inhibition rate (%) Measured value
  inhibition at 125 g/ha: 35%
[5]; Lolium multiflorum, Dose 250 g/ha, read-out: Growth inhibition rate (%) Measured value
  inhibition at 250 g/ha: 42%
[5]; Lolium multiflorum, Dose 500 g/ha, read-out: Growth inhibition rate (%) Measured value
  inhibition at 500 g/ha: 67%
[5]; Lolium multiflorum, Dose 1000 g/ha, read-out: Growth inhibition rate (%) Measured value
  inhibition at 1000 g/ha: 72%

## CCc1cccc(C)c1N(C(=O)CCl)[C@@H](C)COC [S-metolachlor]
[3]; Dose 62.5 g/ha
  Growth inhibition rate (%) Measured value: 0%
[3]; Dose 125 g/ha
  Growth inhibition rate (%) Measured value: 0%
[3]; Dose 750 g/ha
  Growth inhibition rate (%) Measured value: 7%
[3]; Dose 1500 g/ha
  Growth inhibition rate (%) Measured value: 55%
[3]; Dose 3000 g/ha
  Growth inhibition rate (%) Measured value: 73%
